Measurements reported in patent US8470828B2, “Anellated pyridine compounds” (Hoffmann-La Roche Inc., priority 2010, dated 2013).
pKi: −log10 of the molar value.

Columns and labels:
[1] = molecular target: T1, human D2 receptor (Homo sapiens, UniProt P14416); assay: Radioligand binding to cloned human D2 receptor expressed in HEK-293 EBNA cells ([3H]-spiperone); details: HEK293 EBNA cell membranes, approximately 0.7 nM [3H]-spiperone, 1 h at RT
T1 construct: expressed in transfected cells; host or cells: HEK293 EBNA cells, transient transfection; membrane preparation
T1 sequence (P14416 whole entry): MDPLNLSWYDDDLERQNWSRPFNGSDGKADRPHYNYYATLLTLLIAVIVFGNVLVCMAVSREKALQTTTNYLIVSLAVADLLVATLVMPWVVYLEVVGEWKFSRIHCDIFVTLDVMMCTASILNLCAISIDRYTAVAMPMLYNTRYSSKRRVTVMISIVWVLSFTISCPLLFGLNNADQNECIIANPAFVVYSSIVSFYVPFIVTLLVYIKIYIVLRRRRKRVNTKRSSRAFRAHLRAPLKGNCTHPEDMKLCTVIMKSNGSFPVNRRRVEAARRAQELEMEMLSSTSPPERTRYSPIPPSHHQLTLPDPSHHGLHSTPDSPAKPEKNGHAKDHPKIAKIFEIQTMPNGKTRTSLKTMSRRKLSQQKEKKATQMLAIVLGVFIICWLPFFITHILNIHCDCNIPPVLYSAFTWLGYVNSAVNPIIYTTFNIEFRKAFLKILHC
Protocol: (§1) HEK293 EBNA cells were transiently transfected with expression plasmids encoding for the human D2 or D3 or for the human 5-HT2A receptor, respectively. The cells were harvested 48 h post-transfection, washed three times with cold PBS and stored at −80° C. prior to use. The pellet was suspended in cold 50 mM Tris-HCl buffer comprising 10 mM EDTA (pH 7.4) and was homogenized with a Polytron (Kinematica A G, Basel, Switzerland) for 20-30 sec at 12.000 rpm. After centrifugation at 48.000×g for 30 min at 4° C., the pellet was resuspended in cold 10 mM Tris-HCl buffer comprising 0.1 mM EDTA (pH 7.4), homogenized, and centrifuged as above. This pellet was further resuspended in a smaller volume of ice cold 10 mM Tris-HCl buffer comprising 0.1 mM EDTA (pH 7.4) and homogenized with a Polytron for 20-30 sec at 12.000 rpm. The protein content of this homogenate was determined with the Bio-Rad (Bradford) Protein Assay (Biorad Laboratories GmbH, München, Germany) according to the instructions of the manufacturer using gamma globulin as the standard. This homogenate was stored at −80° C. in aliquots and thawed immediately prior to use.
(§2) Aliquots of membrane preparations were thawed at RT, resupended in assay buffer (D2, D3: 50 mM Tris-HCl, 120 mM NaCl, 5 mM MgCl2, 1 mM EDTA, 5 mM KCl, 1.5 mM CaCl2, pH=7.4; 5-HT2A: 50 mM Tris-HCl, 10 mM MgCl2, 1 mM EGTA, pH=7.4), homogenized with a Polytron for 20-30 sec at 12.000 rpm and adjusted to a final concentration of approximately 7.5 μg protein/well (D2, D3) and 15 μg protein/well (5-HT2A), respectively.
(§3) The binding affinity (Ki) of the compounds was determined using radioligand binding. Membranes were incubated in a total volume of 200 μl with a fixed concentration of radioligand (final concentration approximately 0.7 nM [^3H]-spiperone for D2, 0.5 nM [^3H]-spiperone for D3, and 1.1 nM [^3H]-ketanserin for 5-HT2A) and ten concentrations of test compound in ranging between 10 μM-0.1 nM for 1 h at RT. At the end of the incubation, the reaction mixtures were filtered on to unifilter 96-well white microplates with bonded GF/C filters (Packard BioScience, Zürich, Switzerland; preincubated for 1 h in 0.1% polyethylenimine (PEI) in assay buffer) with a Filtermate 196 harvester (Packard BioScience) and washed 3 times with cold assay buffer. The nonspecific binding was determined with equally composed reaction mixtures in the presence of 10 μM unlabelled spiperone. Per well 45 μl of Microscint 40 (Perkin Elmer, Schwerzenbach, Switzerland) was added, plates for sealed, shaken for 20 min and counted for 3 min on a Topcount Microplate Scintillation Counter (Can berra Packard S A, Zürich, Switzerland) with quenching correction.
(§4) The CPM value for each duplicate of a concentration of competing compound was averaged (y1), then the % specific binding was calculated according to the equation (((y1−non-specific)/(total binding−non-specific))×100). Graphs were plotted with the % specific binding using XLfit, a curve fitting program that iteratively plots the data using Levenberg-Marquardt algorithm. The single site competition analysis equation used was y=A+((B−A)/(1+((x/C)D))), where y is the % specific binding, A is the minimum y, B is the maximum y, C is the IC50, x is the log 10 of the concentration of the competing compound and D is the slope of the curve (the Hill Coefficient). […] The affinity constant (Ki) was calculated using the Cheng-Prusoff equation Ki=(IC50/1+([L]/Kd), where [L] is the concentration of radioligand and Kd is the dissociation constant of the radioligand at the receptor as determined by the saturation isotherm.

[2] = molecular target: human D3 receptor (Homo sapiens, UniProt P35462); assay: Radioligand binding to cloned human D3 receptor expressed in HEK-293 EBNA cells ([3H]-spiperone)
human D3 receptor, sequence (P35462 whole entry): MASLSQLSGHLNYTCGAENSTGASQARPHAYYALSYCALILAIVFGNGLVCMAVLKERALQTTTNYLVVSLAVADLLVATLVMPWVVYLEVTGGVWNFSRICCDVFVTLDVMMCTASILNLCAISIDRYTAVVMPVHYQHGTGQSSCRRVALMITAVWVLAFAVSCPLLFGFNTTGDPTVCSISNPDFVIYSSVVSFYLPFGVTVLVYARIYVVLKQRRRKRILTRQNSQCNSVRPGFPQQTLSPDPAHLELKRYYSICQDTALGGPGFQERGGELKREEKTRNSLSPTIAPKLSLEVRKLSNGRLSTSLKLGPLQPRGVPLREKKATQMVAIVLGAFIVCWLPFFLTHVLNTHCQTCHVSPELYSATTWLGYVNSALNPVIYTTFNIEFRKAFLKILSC
Protocol: as §1, §2, §3, §4

[3] = molecular target: human 5-HT2A receptor (Homo sapiens, UniProt P28223); assay: Radioligand binding to cloned human 5-HT2A receptor expressed in HEK-293 EBNA cells ([3H]-ketanserin)
human 5-HT2A receptor, sequence (P28223 whole entry): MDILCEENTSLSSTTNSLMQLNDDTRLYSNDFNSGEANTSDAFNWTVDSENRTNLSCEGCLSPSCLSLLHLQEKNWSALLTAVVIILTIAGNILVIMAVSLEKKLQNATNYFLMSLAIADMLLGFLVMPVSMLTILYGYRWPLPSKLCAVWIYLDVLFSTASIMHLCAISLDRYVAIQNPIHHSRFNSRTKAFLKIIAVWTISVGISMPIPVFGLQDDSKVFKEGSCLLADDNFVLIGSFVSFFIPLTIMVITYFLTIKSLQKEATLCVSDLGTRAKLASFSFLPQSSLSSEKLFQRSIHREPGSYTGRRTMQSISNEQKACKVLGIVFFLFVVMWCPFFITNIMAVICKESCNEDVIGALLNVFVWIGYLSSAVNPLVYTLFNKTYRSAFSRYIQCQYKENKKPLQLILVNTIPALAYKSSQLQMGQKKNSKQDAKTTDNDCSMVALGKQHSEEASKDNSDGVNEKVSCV

pKi [1]	pKi [2]	pKi [3]	melting point [°C]	Compound
6.36	8.00	8.11		CO[C@@H]1CC[C@@H](CC(=O)N[C@H]2CC[C@H](CCN3CCN(c4nccc5ccsc45)CC3)CC2)C1 (racemic) [Example 5, 2-(trans-3-Methoxy-cyclopentyl)-N-{trans-4-[2-(4-thieno[2,3-c]pyridin-7-yl-piperazin-1-yl)-ethyl]cyclohexyl}-acetamide]
6.01	8.03	8.09	193	O=C(CC1COCCO1)N[C@H]1CC[C@H](CCN2CCN(c3nccc4ccoc34)CC2)CC1 (mixture of isomers) [Example 15, trans-2-rac-[1,4]Dioxan-2-yl-N-{4-[2-(4-furo[2,3-c]pyridin-7-yl-piperazin-1-yl)-ethyl]-cyclohexyl}-acetamide]
6.45	8.03	7.34	173.5	O=C(CC1CCCO1)N[C@H]1CC[C@H](CCN2CCN(c3nccc4c3OCC4)CC2)CC1 (mixture of isomers) [Example 29, trans-N-(4-{2-[4-(2,3-Dihydro-furo[2,3-c]pyridin-7-yl)-piperazin-1-yl]-ethyl}-cyclohexyl)-2-rac-(tetrahydro-furan-2-yl)-acetamide]
6.15	7.86	7.48	185	O=C(N[C@H]1CC[C@H](CCN2CCN(c3nccc4c3OCC4)CC2)CC1)C(O)C(F)(F)F (mixture of isomers) [Example 58, trans-N-(4-{2-[4-(2,3-Dihydro-furo[2,3-c]pyridin-7-yl)-piperazin-1-yl]-ethyl}-cyclohexyl)-(RS)-3,3,3-trifluoro-2-hydroxy-propionamide]
5.94	7.14	7.69	145	O=C(N[C@H]1CC[C@H](CCN2CCN(c3nccc4c3OCC4)CC2)CC1)C1CCCO1 (mixture of isomers) [Example 82, (RS)-Tetrahydro-furan-2-carboxylic acid trans-(4-{2-[4-(2,3-dihydro-furo[2,3-c]pyridin-7-yl)-piperazin-1-yl]-ethyl}-cyclohexyl)-amide]
6.15	7.76	7.31	196.5	CCC(C)C(=O)N[C@H]1CC[C@H](CCN2CCN(c3nccc4c3OCC4)CC2)CC1 (mixture of isomers) [Example 83, trans-N-(4-{2-[4-(2,3-Dihydro-furo[2,3-c]pyridin-7-yl)-piperazin-1-yl]-ethyl}-cyclohexyl)-(RS)-2-methyl-butyramide]
6.22	7.64	7.56	203	O=C(N[C@H]1CC[C@H](CCN2CCN(c3nccc4c3OCC4)CC2)CC1)C1CCCOC1 (mixture of isomers) [Example 97, (RS)-Tetrahydro-pyran-3-carboxylic acid trans-(4-{2-[4-(2,3-dihydro-furo[2,3-c]pyridin-7-yl)-piperazin-1-yl]-ethyl}-cyclohexyl)-amide]
6.20	8.05	7.26	168.5	COC(C)CC(=O)N[C@H]1CC[C@H](CCN2CCN(c3nccc4c3OCC4)CC2)CC1 (mixture of isomers) [Example 101, trans-N-(4-{2-[4-(2,3-Dihydro-furo[2,3-c]pyridin-7-yl)-piperazin-1-yl]-ethyl}-cyclohexyl)-(RS)-3-methoxy-butyramide]
6.41	8.64	7.92		CC(=O)N[C@H]1CC[C@H](CCN2CCN(c3nccc4ccsc34)CC2)CC1 [Example 1, N-{trans-4-[2-(4-Thieno[2,3-c]pyridin-7-yl-piperazin-1-yl)-ethyl]-cyclohexyl}-acetamide]
6.64	8.72	8.04		CCC(=O)N[C@H]1CC[C@H](CCN2CCN(c3nccc4ccsc34)CC2)CC1 [Example 2, N-{trans-4-[2-(4-Thieno[2,3-c]pyridin-7-yl-piperazin-1-yl)-ethyl]-cyclohexyl}-propionamide]
6.40	8.72	7.97		COCCC(=O)N[C@H]1CC[C@H](CCN2CCN(c3nccc4ccsc34)CC2)CC1 [Example 3, 3-Methoxy-N-{trans-4-[2-(4-thieno[2,3-c]pyridin-7-yl-piperazin-1-yl)-ethyl]-cyclohexyl}-propionamide]
6.13	7.85	8.02		CO[C@H]1CC[C@H](CC(=O)N[C@H]2CC[C@H](CCN3CCN(c4nccc5ccsc45)CC3)CC2)CC1 [Example 4, 2-(trans-4-Methoxy-cyclohexyl)-N-{trans-4-[2-(4-thieno[2,3-c]pyridin-7-yl-piperazin-1-yl)-ethyl]-cyclohexyl}-acetamide]
6.33	8.40	7.24	195	CC(=O)N[C@H]1CC[C@H](CCN2CCN(c3nccc4c3OCC4)CC2)CC1 [Example 6, trans-N-(4-{2-[4-(2,3-Dihydro-furo[2,3-c]pyridin-7-yl)-piperazin-1-yl]-ethyl}-cyclohexyl)-acetamide]
6.45	7.88	7.81	236.5	O=C(N[C@H]1CC[C@H](CCN2CCN(c3nccc4c3OCC4)CC2)CC1)C1CCOCC1 [Example 7, trans-Tetrahydro-pyran-4-carboxylic acid (4-{2-[4-(2,3-dihydro-furo[2,3-c]pyridin-7-yl)-piperazin-1-yl]-ethyl}-cyclohexyl)-amide]
5.83	8.13	7.31	222.5	O=C(CC1CCOCC1)N[C@H]1CC[C@H](CCN2CCN(c3nccc4c3OCC4)CC2)CC1 [Example 8, trans-N-(4-{2-[4-(2,3-Dihydro-furo[2,3-c]pyridin-7-yl)-piperazin-1-yl]-ethyl}-cyclohexyl)-2-(tetrahydro-pyran-4-yl)-acetamide]
6.00	8.29	7.17	180	COCCC(=O)N[C@H]1CC[C@H](CCN2CCN(c3nccc4c3OCC4)CC2)CC1 [Example 9, trans-N-(4-{2-[4-(2,3-Dihydro-furo[2,3-c]pyridin-7-yl)-piperazin-1-yl]-ethyl}-cyclohexyl)-3-methoxy-propionamide]
6.16	8.19	7.73	157	CC(=O)N[C@H]1CC[C@H](CCN2CCN(c3nccc4ccoc34)CC2)CC1 [Example 10, trans-N-{4-[2-(4-Furo[2,3-c]pyridin-7-yl-piperazin-1-yl)-ethyl]-cyclohexyl}-acetamide]
6.29	7.65	8.14	211	O=C(N[C@H]1CC[C@H](CCN2CCN(c3nccc4ccoc34)CC2)CC1)C1CCOCC1 [Example 11, Tetrahydro-pyran-4-carboxylic acid trans-{4-[2-(4-furo[2,3-c]pyridin-7-yl-piperazin-1-yl)-ethyl]-cyclohexyl}-amide]
5.94	7.83	7.66	213	O=C(CC1CCOCC1)N[C@H]1CC[C@H](CCN2CCN(c3nccc4ccoc34)CC2)CC1 [Example 12, trans-N-{4-[2-(4-Furo[2,3-c]pyridin-7-yl-piperazin-1-yl)-ethyl]-cyclohexyl}-2-(tetrahydro-pyran-4-yl)-acetamide]
5.95	8.11	7.68	146	COCCC(=O)N[C@H]1CC[C@H](CCN2CCN(c3nccc4ccoc34)CC2)CC1 [Example 13, trans-N-{4-[2-(4-Furo[2,3-c]pyridin-7-yl-piperazin-1-yl)-ethyl]-cyclohexyl}-3-methoxy-propionamide]
6.30	8.45	8.02	187.5	CCC(=O)N[C@H]1CC[C@H](CCN2CCN(c3nccc4ccoc34)CC2)CC1 [Example 14, trans-N-{4-[2-(4-Furo[2,3-c]pyridin-7-yl-piperazin-1-yl)-ethyl]-cyclohexyl}-propionamide]
5.91	7.75	8.00	132	COCC(=O)N[C@H]1CC[C@H](CCN2CCN(c3nccc4ccoc34)CC2)CC1 [Example 16, trans-N-{4-[2-(4-Furo[2,3-c]pyridin-7-yl-piperazin-1-yl)-ethyl]-cyclohexyl}-2-methoxy-acetamide]
6.24	8.37	7.96	182	CS(=O)(=O)CC(=O)N[C@H]1CC[C@H](CCN2CCN(c3nccc4ccoc34)CC2)CC1 [Example 17, trans-N-{4-[2-(4-Furo[2,3-c]pyridin-7-yl-piperazin-1-yl)-ethyl]-cyclohexyl}-2-methanesulfonyl-acetamide]
6.19	8.40	7.36	196	CCC(=O)N[C@H]1CC[C@H](CCN2CCN(c3nccc4c3OCC4)CC2)CC1 [Example 18, trans-N-(4-{2-[4-(2,3-Dihydro-furo[2,3-c]pyridin-7-yl)-piperazin-1-yl]-ethyl}-cyclohexyl)-propionamide]
5.91	8.05	7.53	194.5	O=C(CC1COCCO1)N[C@H]1CC[C@H](CCN2CCN(c3nccc4c3OCC4)CC2)CC1 (stereo partly drawn) [Example 19, trans-N-(4-{2-[4-(2,3-Dihydro-furo[2,3-c]pyridin-7-yl)-piperazin-1-yl]-ethyl}-cyclohexyl)-2-[1,4]dioxan-2-yl-acetamide]
	8.22	7.31	187	O=C(Cc1ccc2c(c1)OCO2)N[C@H]1CC[C@H](CCN2CCN(c3nccc4c3OCC4)CC2)CC1 [Example 80, trans-2-Benzo[1,3]dioxol-5-yl-N-(4-{2-[4-(2,3-dihydro-furo[2,3-c]pyridin-7-yl)-piperazin-1-yl]-ethyl}-cyclohexyl)-acetamide]
